This note sets out measurements from US20250281629A1, “COMPOSITIONS AND METHODS FOR ANTI-PHOSPHOCHOLINE ACTIVE IMMUNOTHERAPY” (Duke University, priority 2022, published 2025).

Where no end group is shown, it is not given here.

Common to all, as to format: in vivo, mouse
The test system of series [1] is C57BL/6 mice. Put plainly: One cycle acute DSS-induced colitis, female and male mice. An excerpt: (§1) DSS-Induced Colitis and Assessment. Before inducing colitis, mice from each treatment group were divided amongst the cages to avoid any cage-related disease effects. This excluded the PBS without DSS (healthy) control mice which remained in their own cage and received normal drinking water for the duration of the experiment. Colitis was induced by administering 2% (w/v) colitis-grade dextran sodium sulfate (MP Biomedicals, 160110) in drinking water. For determination of prophylactic immunization efficacy, mice were immunized i.p. 3 times at days −35, −21 and −7 before colitis induction on Day 0. Chronic colitis was induced via DSS-containing water given for 5 days followed by 5 days of normal drinking water for 3 cycles, resulting in a 30-day model. A shorter, acute DSS-induced colitis model consisting of one cycle of colitis was achieved by giving 5 days of 2% DSS in water followed by 5 days of normal drinking water for a total of 10 days and was also examined in a preventative immunization scenario. Mice were weighed daily and evaluated for the IACUC approved humane endpoint of >30% weight loss as DSS mice regain weight quickly after DSS administration ceases. They were also monitored for occult blood with Hemoccult tape and developer (Beckman Coulter, 63202) and fecal consistency. Disease activity index (DAI) scores were a combination of weight loss (≥100%=0, 90-99%=1, 80-89%=2, >80%=3), occult blood (no blood=0, blood=3), and fecal consistency (hard=0, soft=1, softer=2, runny=3), with a possible daily maximum score of 9. […] At the experimental endpoint, mice were euthanized, and colon lengths were measured from the base of the cecum to the rectum using digital calibrators. To determine immunization efficacy in a therapeutic colitis setting, colitis was first induced by administering one cycle of colitis achieved by 5 days of 2% DSS in water followed by 5 days of normal drinking water for a total of 10 days. Mice were monitored daily as described above until they on average regained their original body weight on day 20. At this point, i.p. immunizations were initiated and given three times over a 4-week period on days 20, 32, and 45, and colitis monitoring was reduced to twice weekly. An additional cycle of colitis was then induced on day 51 via 5 days of 2% DSS in water followed by 5 days of normal drinking water for a total of 10 days with daily monitoring. The entire therapeutic model ended on day 60, and colon lengths were measured as described above.
Spleen Bacteria Measurements. At the conclusion of the DSS experiments, spleens were harvested and weighed followed by homogenization in 500 μL of 0.1% Triton X-100 in sterile 1×PBS using a Tissue Tearer handheld homogenizer (Biospec Products). 25 μL of homogenate solution was then spread on each quarter of culture plates consisting of tryptic soy broth No. 2 (Sigma, 51228) and Difco agar, granulated (BD Biosciences, 214530) in dilutions from 100 to 103. After a 48 hr incubation at 37° C., colony forming units (CFUs) were counted and converted to CFU/g of spleen tissue via the equations: […]
Colon IL-10 Quantification. At the conclusion of some DSS experiments, one half of the harvested mouse colons were flushed with PBS to remove fecal matter and flash frozen in liquid nitrogen. Later, colons were thawed on ice, weighed, and homogenized in 2 μL/mg of Tissue Extraction Reagent I (Thermo Fisher, FNN0071) with a protease inhibitor tablet (Thermo Fisher, A32955) using a Navy Bead Lysis Kit (Next Advance, NAVYE1). The amount of IL-10 in colon homogenate supernatants was then measured using an IL-10 mouse ELISA kit (Invitrogen, 88-7105-22) in accordance with the manufacturer's protocol.

Series [2] concerns C57BL/6 mice. Put plainly: Therapeutic DSS colitis model (immunization between DSS cycles).
From the text: as §1, with “consistency.” for “consistency. Disease activity index (DAI) scores were a combination of weight loss (≥100%=0, 90-99%=1, 80-89%=2, >80%=3), occult blood (no blood=0, blood=3), and fecal consistency (hard=0, soft=1, softer=2, runny=3), with a possible daily maximum score of 9.”, “To determine immunization efficacy in a therapeutic colitis setting, colitis was first induced by administering one cycle of colitis achieved by 5 days of 2% DSS in water followed by 5 days of normal drinking water for a total of 10 days.” left out, “At this point, i.p. immunizations were initiated and given three times over a 4-week period on days 20, 32, and 45, and colitis monitoring was reduced to twice weekly. An additional cycle of colitis was then induced on day 51 via 5 days of 2% DSS in water followed by 5 days of normal drinking water for a total of 10 days with daily monitoring.” left out
FITC-dextran Measurements. […] To determine the intestinal barrier permeability, serum samples were diluted in 1×PBS and FITC fluorescence intensity was measured at an excitation of 488 nm and emission of 520 nm. […]
Spleen Bacteria Measurements. […] After a 48 hr incubation at 37° C., colony forming units (CFUs) were counted and converted to CFU/g of spleen tissue via the equations: […]

A further series concerns occludin. The series can be described thus: Immunofluorescence of colon tight junction protein occludin. The note with it: week 5; vs PBS control mice. On the procedure:
Immunofluorescence Imaging and Analysis. Immunofluorescence was conducted on sections from proximal colon samples frozen in OCT and sectioned. Slides were first thawed and outlined with a hydrophobic pen (ImmEdge Hydrophobic Barrier PAP Pen, Vector Labs, H-4000) then fixed with 4% paraformaldehyde for 10 min at room temperature. The slides were washed three times with wash buffer (1×PBS+100 mM CaCl2+100 mM MgCl) for 10 min at room temperature then incubated in a blocking solution containing 0.3% Triton X-100 and 10% normal donkey serum in 1×PBS+100 mM CaCl2+100 mM MgCl for 1 h at room temperature. The slides were then incubated in the primary antibodies (rat anti-ZO-1, clone R40.70, Fisher Scientific, MABT11; rabbit anti-occludin, clone EPR20992, Abcam, ab216327) diluted 1:100 in the blocking solution overnight at 4° C. The slides were washed three times with wash buffer for 10 min at room temperature. They were then incubated in the secondary antibodies (donkey anti-rat Alexa Fluor™ 568, Thermo Fisher, A78946; donkey anti-rabbit Alexa Fluor™ 647, Thermo Fisher, A31573) and nuclear marker DAPI diluted 1:500 in the blocking solution for 2 h at room temperature. […] The intensities of each marker were quantified using ImageJ and expressed as the integrated density of the fluorescent signal normalized to the area fraction of DAPI positive pixels. […]

For the substance “(C11H22NO6P)n-CCCCSGSG-QQKFQFQFEQQ-NH2 (CCCCSGSGQQKFQFQFEQQ-NH2; not fully specified; cysteine pairing not given here; also: phosphorylcholine groups (C11H22NO6P) n=1-4, attachment not placed) [PCM-Q11, linear multi-PC conjugate]”, the colon lengths entry with C57BL/6 mice [1] (both sexes, vs CpG-immunized mice and DSS disease controls) is “increased colon lengths”. In the series with C57BL/6 mice [1] (female), the “serum anti-PC IgM, female mice” value is on record as “undetectable” and the “spleen colony forming units (CFUs), female mice” value was “dramatically decreased spleen colony forming units (CFUs)”. Also, in the series with C57BL/6 mice [1] (male), the “colon IL-10 levels, male mice” value is on record as “not significantly reduced compared to healthy controls”; the “serum anti-PC IgM, male mice” value was “significantly less anti-PC IgM than PCM-Q11/CpG”; the “spleen CFUs / bacterial spread, male mice” value is “This trend was also present, though not statistically significant”. For the same substance, the “protective efficacy / disease metrics, female mice” value with C57BL/6 mice [1] (one cycle 2% DSS, 10 days, female) was “significant protective efficacy”. The “weight loss and disease activity index scores, male mice” value in the series on C57BL/6 mice [1] (one cycle 2% DSS, male) is “improved weight loss and disease activity index scores”. In addition, the “anti-PC IgG responses in mice with prior DSS colitis” value in the series with C57BL/6 mice [2] (i.p. days 20, 32, 45, without CpG, vs immunization in absence of prior colitis) is “higher anti-PC IgG responses”. Besides, the “IgG subclasses in mice with prior DSS colitis” value in the series with C57BL/6 mice [2] (mouse, in vivo) is given as “not altered”. Besides, the “anti-PC IgM response in mice with prior DSS colitis” value in the series on C57BL/6 mice [2] (without CpG) was “measurable anti-PC IgM response”. In the series on occludin, the “occludin levels in colon after immunization” value was “not significantly different”.
